# Tests used:
# [1] = tested on: influenza A/New York/469/2004-like flu (H3N2) virus; assay: microbe, parasite or virus in culture; settings: H3N2, MDCK, read-out: EC50 (μM), H3N2
# [2] = tested on: influenza A/New York/469/2004-like flu (H3N2) virus; assay: in vitro; settings: dog
# in vitro = settings: dog
# [3] = CC50 (μM), Table 4 (H3N2 series), MDCK cells
SMILES,EC50 [1],selectivity ratio at 24 h [2],CC50 (in vitro; [3]),melting point,CC50 (in vitro)
"O=c1cc(-c2ccccc2)oc2cc(O)c(O)c(O)c12 [Baicalein, reference compound]",92.3 µM,> 3.3,> 300 µM,,
"O=C(O)[C@H]1O[C@@H](Oc2cc3oc(-c4ccccc4)cc(=O)c3c(O)c2O)[C@H](O)[C@@H](O)[C@@H]1O [Baicalin, reference compound]",104 µM,> 2.9,> 300 µM,,
"COc1cc2oc(-c3ccccc3Br)cc(=O)c2c(OC)c1OC [Compound 2k, 2-(2-Bromophenyl)-5,6,7-trimethoxy-4H-chromen-4-one]",64.1 µM,2,128 µM,122 to 123 °C,
"COc1cc2oc(-c3cccc(Br)c3)cc(=O)c2c(OC)c1OC [Compound 2l, 2-(3-Bromophenyl)-5,6,7-trimethoxy-4H-chromen-4-one]",128 µM,0.5,64.1 µM,190 to 191 °C,
"COc1cc2oc(-c3ccc(Br)cc3)cc(=O)c2c(OC)c1OC [Compound 2m, 2-(4-Bromophenyl)-5,6,7-trimethoxy-4H-chromen-4-one]",,,> 300 µM,165 to 166 °C,
"COc1cc2oc(-c3ccccc3Br)cc(=O)c2c(O)c1OC [Compound 4a, 2-(2-Bromophenyl)-5-hydroxy-6,7-dimethoxy-4H-chromen-4-one]",133 µM,1.5,200 µM,221 to 222 °C,
"COc1cc2oc(-c3cccc(Br)c3)cc(=O)c2c(O)c1OC [Compound 4b, 2-(3-Bromophenyl)-5-hydroxy-6,7-dimethoxy-4H-chromen-4-one]",133 µM,0.5,66.5 µM,188 to 189 °C,
"COc1cc2oc(-c3ccc(Br)cc3)cc(=O)c2c(O)c1OC [Compound 4c, 2-(4-Bromophenyl)-5-hydroxy-6,7-dimethoxy-4H-chromen-4-one]",,,> 300 µM,206 to 208 °C,
"COc1c(O)cc2oc(-c3ccccc3Br)cc(=O)c2c1O [Compound 5a, 2-(2-Bromophenyl)-5,7-dihydroxy-6-methoxy-4H-chromen-4-one]",17.3 µM,> 17.3,> 300 µM,,
"COc1c(O)cc2oc(-c3cccc(Br)c3)cc(=O)c2c1O [Compound 5b, 2-(3-Bromophenyl)-5,7-dihydroxy-6-methoxy-4H-chromen-4-one]",17.3 µM,> 17.3,> 300 µM,,
"COc1c(O)cc2oc(-c3ccc(Br)cc3)cc(=O)c2c1O [Compound 5c, 2-(4-Bromophenyl)-5,7-dihydroxy-6-methoxy-4H-chromen-4-one]",34.5 µM,> 8.7,> 300 µM,275 to 276 °C,
"O=c1cc(-c2ccccc2Br)oc2cc(O)c(O)c(O)c12 [Compound 6a, 2-(2-Bromophenyl)-5,6,7-trihydroxy-4H-chromen-4-one]",71.8 µM,> 4.2,> 300 µM,249 to 251 °C,
"O=c1cc(-c2cccc(Br)c2)oc2cc(O)c(O)c(O)c12 [Compound 6b, 2-(3-Bromophenyl)-5,6,7-trihydroxy-4H-chromen-4-one]",35.9 µM,> 8.4,> 300 µM,255 to 256 °C,
"O=c1cc(-c2ccc(Br)cc2)oc2cc(O)c(O)c(O)c12 [Compound 6c, 2-(4-Bromophenyl)-5,6,7-trihydroxy-4H-chromen-4-one]",35.9 µM,> 8.4,> 300 µM,,
"NC(=O)c1ncn([C@@H]2O[C@H](CO)[C@@H](O)[C@H]2O)n1 [Ribavirin, reference compound]",25.6 µM,> 11.7,> 300 µM,,
"CCOC(=O)C1=C[C@@H](OC(CC)CC)[C@H](NC(C)=O)[C@@H](N)C1 [oseltamivir, reference compound]",,,,,320 µM

# Reference: patent US20150329515A1, “COMPOSITION AND METHOD FOR TREATING OR PREVENTING INFLUENZA VIRUS INFECTION” (National Defense Medical Center, priority 2014, published 2015)
